Assays:
Type in all cases: cell-based
[1] = test system: HeLa; assay: SRB colorimetric cell growth inhibition assay, HeLa; details: Homo sapiens, HeLa; for GI50: GI=growth inhibition, read-out: GI50 HELA; for CC50: cell killing (cytotoxic effect), read-out: LC50 HELA; for IC (TGI): total growth inhibition (cytostatic effect), read-out: TGI HELA
Source text: (§1) The finality of these assays is to interrupt the growth of an “in vitro” tumor cell culture by means a continued exhibition of the cells to the sample to be testing.
(§2) A colorimetric type of assay, using sulforhodamine B (SRB) reaction has been adapted for a quantitative measurement of cell growth and viability (following the technique described by P. A. Skehan, et al., J. Natl. Cancer Inst. 1990, 82, 1107-1112).
(§3) This form of assay employs 96 well cell culture microplates of 9 mm diameter (T. Mosmann et al., J. of Immunological Methods 1983, 65, 55-63; G. T. Faircloth et al., J. of Tissue and Culture Methods 1988, 11, 201-205).
(§4) Most of the cell lines are obtained from American Type Culture Collection (ATCC) derived from different human cancer types.
(§5) The values for mean +/− SD of data from triplicate wells are calculated. Some parameters for cellular responses can be calculated: GI=growth inhibition, TGI=total growth inhibition (cytostatic effect) and LC=cell killing (cytotoxic effect).

[2] = test system: IGROV-ET; assay: SRB colorimetric cell growth inhibition assay, IGROV-ET (ET-743 resistant); details: Homo sapiens, IGROV-ET; for GI50: GI=growth inhibition, read-out: GI50 IGROV-ET; for CC50: cell killing (cytotoxic effect), read-out: LC50 IGROV-ET; for IC (TGI): total growth inhibition (cytostatic effect), read-out: TGI IGROV-ET
Source text: as §1, §2, §3, §4, §5

[3] = test system: A-549; assay: SRB colorimetric cell growth inhibition assay, A-549; details: Homo sapiens, A549, A-549; for GI50: GI=growth inhibition, read-out: GI50 A-549; for CC50: cell killing (cytotoxic effect), read-out: LC50 A-549; for IC (TGI): total growth inhibition (cytostatic effect), read-out: TGI A-549
Source text: as §1, §2, §3, §4, §5

[4] = test system: PANC-1; assay: SRB colorimetric cell growth inhibition assay, PANC-1; details: Homo sapiens, PANC-1, PANC-1; for GI50: GI=growth inhibition, read-out: GI50 PANC-1; for CC50: cell killing (cytotoxic effect), read-out: LC50 PANC-1; for IC (TGI): total growth inhibition (cytostatic effect), read-out: TGI PANC-1
Source text: as §1, §2, §3, §4, §5

[5] = test system: SK-MEL-28; assay: SRB colorimetric cell growth inhibition assay, SK-MEL-28; details: Homo sapiens, SK-MEL-28, MEL-28; for GI50: GI=growth inhibition, read-out: GI50 MEL-28; for CC50: cell killing (cytotoxic effect), read-out: LC50 MEL-28; for IC (TGI): total growth inhibition (cytostatic effect), read-out: TGI MEL-28
Source text: as §1, §2, §3, §4, §5

[6] = test system: DU-145; assay: SRB colorimetric cell growth inhibition assay, DU-145; details: Homo sapiens, DU-145, DU-145; for GI50: GI=growth inhibition, read-out: GI50 DU-145; for CC50: cell killing (cytotoxic effect), read-out: LC50 DU-145; for IC (TGI): total growth inhibition (cytostatic effect), read-out: TGI DU-145
Source text: as §1, §2, §3, §4, §5

[7] = test system: LoVo-Dox; assay: SRB colorimetric cell growth inhibition assay, LoVo-Dox (MDR); details: Homo sapiens, LOVO-DOX; for GI50: GI=growth inhibition, read-out: GI50 LOVO-DOX; for CC50: cell killing (cytotoxic effect), read-out: LC50 LOVO-DOX; for IC (TGI): total growth inhibition (cytostatic effect), read-out: TGI LOVO-DOX
Source text: as §1, §2, §3, §4, §5

[8] = test system: IGROV; assay: SRB colorimetric cell growth inhibition assay, IGROV; details: Homo sapiens, IGROV; for GI50: GI=growth inhibition, read-out: GI50 IGROV; for CC50: cell killing (cytotoxic effect), read-out: LC50 IGROV; for IC (TGI): total growth inhibition (cytostatic effect), read-out: TGI IGROV
Source text: as §1, §2, §3, §4, §5

[9] = test system: SK-BR-3; assay: SRB colorimetric cell growth inhibition assay, SK-BR-3; details: Homo sapiens, SK-BR-3, SK-BR-3; for GI50: GI=growth inhibition, read-out: GI50 SK-BR-3; for CC50: cell killing (cytotoxic effect), read-out: LC50 SK-BR-3; for IC (TGI): total growth inhibition (cytostatic effect), read-out: TGI SK-BR-3
Source text: as §1, §2, §3, §4, §5

[10] = test system: HT-29; assay: SRB colorimetric cell growth inhibition assay, HT-29; details: Homo sapiens, HT-29, HT-29; for GI50: GI=growth inhibition, read-out: GI50 HT-29; for CC50: cell killing (cytotoxic effect), read-out: LC50 HT-29; for IC (TGI): total growth inhibition (cytostatic effect), read-out: TGI HT-29
Source text: as §1, §2, §3, §4, §5

[11] = test system: HeLa-APL; assay: SRB colorimetric cell growth inhibition assay, HeLa-APL (aplidine resistant); details: Homo sapiens, HELA-APL; for GI50: GI=growth inhibition, read-out: GI50 HELA-APL; for CC50: cell killing (cytotoxic effect), read-out: LC50 HELA-APL; for IC (TGI): total growth inhibition (cytostatic effect), read-out: TGI HELA-APL
Source text: as §1, §2, §3, §4, §5

[12] = test system: LoVo; assay: SRB colorimetric cell growth inhibition assay, LoVo; details: Homo sapiens, LoVo; for GI50: GI=growth inhibition, read-out: GI50 LOVO; for CC50: cell killing (cytotoxic effect), read-out: LC50 LOVO; for IC (TGI): total growth inhibition (cytostatic effect), read-out: TGI LOVO
Source text: as §1, §2, §3, §4, §5

| Structure (SMILES) | GI50 [1] [µM] | CC50 [1] [µM] | IC (TGI) [1] [µM] | GI50 [2] [µM] | CC50 [2] [µM] | IC (TGI) [2] [µM] | GI50 [3] [µM] | CC50 [3] [µM] | IC (TGI) [3] [µM] | GI50 [4] [µM] | CC50 [4] [µM] | IC (TGI) [4] [µM] | GI50 [5] [µM] | CC50 [5] [µM] | IC (TGI) [5] [µM] | GI50 [6] [µM] | CC50 [6] [µM] | IC (TGI) [6] [µM] | GI50 [7] [µM] | CC50 [7] [µM] | also measured |
| --- | --- | --- | --- | --- | --- | --- | --- | --- | --- | --- | --- | --- | --- | --- | --- | --- | --- | --- | --- | --- | --- |
| COc1cc(-c2c3c4cc(OC)c(OC(C)C)cc4oc(=O)c3n3ccc4c(OC(C)C)c(OC)c(OC)cc4c23)ccc1OC(C)C [Compound 27] | 4.04 | 15.2 | 9.47 | 10.4 | 15.2 | 15.2 | 5.49 | 15.2 | 15.2 | 4.41 | 15.2 | 13 | 4.47 | 15.2 | 9.35 | 0.976 | 12.6 | 3.95 | 15.2 | 15.2 | IC (TGI) [7]: 15.2 µM; GI50 [8]: 1.15 µM; CC50 [8]: 15.2 µM; IC (TGI) [8]: 5.06 µM; GI50 [9]: 0.881 µM; CC50 [9]: 14.1 µM; IC (TGI) [9]: 3.25 µM; GI50 [10]: 0.144 µM; CC50 [10]: 15.2 µM; IC (TGI) [10]: 2.17 µM; GI50 [11]: 13 µM; CC50 [11]: 15.2 µM; IC (TGI) [11]: 15.2 µM; GI50 [12]: 0.27 µM; CC50 [12]: 15.2 µM; IC (TGI) [12]: 2.17 µM |
| CCCCCCCC(=O)Oc1ccc(-c2c3n(c4c(=O)oc5cc(OC(=O)CCCCCCC)c(OC)cc5c24)CCc2cc(OC(=O)CCCCCCC)c(OC)cc2-3)cc1OC [Compound 28] | 2.76 | 11.4 | 9.24 | 11.4 | 11.4 | 11.4 | 1.39 | 11.4 | 11.4 | 1.91 | 11.4 | 11.4 | 2.24 | 11.4 | 7.28 | 0.315 | 7.32 | 1.47 | 11.4 | 11.4 | IC (TGI) [7]: 11.4 µM; GI50 [8]: 1.64 µM; CC50 [8]: 9.61 µM; IC (TGI) [8]: 3.97 µM; GI50 [9]: 0.941 µM; CC50 [9]: 11.4 µM; IC (TGI) [9]: 4.73 µM; GI50 [10]: 0.111 µM; CC50 [10]: 11.4 µM; IC (TGI) [10]: 1.2 µM; GI50 [11]: 9.53 µM; CC50 [11]: 11.4 µM; IC (TGI) [11]: 11.4 µM; GI50 [12]: 0.634 µM; CC50 [12]: 11.4 µM; IC (TGI) [12]: 5.16 µM |
